Key:
[1] = design: method as in PMID 28940154; conditions: cited from earlier work
[2] = molecular target: hCA VA (Homo sapiens, UniProt P35218); assay: Stopped flow CO2 hydrase assay, hCA VA
Description: (§1) An Applied Photophysics stopped-flow instrument has been used for assaying the CA-catalysed CO2 hydration activity[11]. […] The uncatalysed rates were determined in the same manner and subtracted from the total observed rates. Stock solutions of inhibitor (0.1 mM) were prepared in distilled-deionised water and dilutions up to 0.01 nM were done thereafter with the assay buffer. […] The inhibition constants were obtained by non-linear least-squares methods using PRISM 3 and the Cheng–Prusoff equation, as reported earlier[12]^,[13] and represent the mean from at least three different determinations.

[3] = molecular target: hCA IX (Homo sapiens, UniProt Q16790); assay: Stopped flow CO2 hydrase assay, hCA IX
Description: as §1

[4] = molecular target: hCA III (Homo sapiens, UniProt P07451); assay: Stopped flow CO2 hydrase assay, hCA III
Description: as §1

[5] = molecular target: hCA IV (Homo sapiens, UniProt P22748); assay: Stopped flow CO2 hydrase assay, hCA IV
Sequence of hCA IV (P22748 19-312): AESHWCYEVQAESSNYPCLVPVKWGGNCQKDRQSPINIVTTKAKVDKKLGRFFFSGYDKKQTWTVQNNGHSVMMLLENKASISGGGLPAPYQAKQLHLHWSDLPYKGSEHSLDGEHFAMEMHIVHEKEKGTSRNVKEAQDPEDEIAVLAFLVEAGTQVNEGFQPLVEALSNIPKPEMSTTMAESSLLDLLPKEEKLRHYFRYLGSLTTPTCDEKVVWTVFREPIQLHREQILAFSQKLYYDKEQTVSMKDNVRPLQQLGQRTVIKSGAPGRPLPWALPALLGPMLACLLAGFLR
Description: as §1

[6] = molecular target: hCA XIII (Homo sapiens, UniProt Q8N1Q1); assay: Stopped flow CO2 hydrase assay, hCA XIII
Sequence of hCA XIII (Q8N1Q1 whole entry): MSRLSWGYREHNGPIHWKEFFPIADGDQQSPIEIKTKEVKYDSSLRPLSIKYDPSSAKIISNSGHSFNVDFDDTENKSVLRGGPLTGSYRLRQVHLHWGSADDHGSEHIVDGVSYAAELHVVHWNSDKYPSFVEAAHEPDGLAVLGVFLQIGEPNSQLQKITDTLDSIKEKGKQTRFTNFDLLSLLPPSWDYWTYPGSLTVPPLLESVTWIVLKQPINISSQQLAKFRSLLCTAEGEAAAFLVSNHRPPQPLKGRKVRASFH
Description: as §1

[7] = molecular target: hCA VB (Homo sapiens, UniProt Q9Y2D0); assay: Stopped flow CO2 hydrase assay, hCA VB
Sequence of hCA VB (Q9Y2D0 34-317): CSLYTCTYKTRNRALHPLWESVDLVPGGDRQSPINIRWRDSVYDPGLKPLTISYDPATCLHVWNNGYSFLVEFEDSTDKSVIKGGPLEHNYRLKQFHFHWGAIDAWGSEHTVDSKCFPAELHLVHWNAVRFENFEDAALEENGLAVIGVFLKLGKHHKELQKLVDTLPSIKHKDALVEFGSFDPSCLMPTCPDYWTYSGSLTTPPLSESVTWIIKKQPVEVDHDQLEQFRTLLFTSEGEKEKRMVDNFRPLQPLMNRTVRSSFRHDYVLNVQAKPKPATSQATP
Description: as §1

[8] = molecular target: hCA VI (Homo sapiens, UniProt P23280); assay: Stopped flow CO2 hydrase assay, hCA VI
Sequence of hCA VI (P23280 18-308): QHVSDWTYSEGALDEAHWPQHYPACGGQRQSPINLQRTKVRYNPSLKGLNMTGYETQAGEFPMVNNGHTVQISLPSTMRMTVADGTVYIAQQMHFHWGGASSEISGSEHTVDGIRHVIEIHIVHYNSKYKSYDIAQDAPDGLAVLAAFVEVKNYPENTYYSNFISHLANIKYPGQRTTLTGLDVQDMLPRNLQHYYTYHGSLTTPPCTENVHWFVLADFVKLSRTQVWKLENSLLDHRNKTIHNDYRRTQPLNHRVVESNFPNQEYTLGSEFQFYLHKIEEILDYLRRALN
Description: as §1

[9] = molecular target: hCA VII (Homo sapiens, UniProt P43166); assay: Stopped flow CO2 hydrase assay, hCA VII
Sequence of hCA VII (P43166 whole entry): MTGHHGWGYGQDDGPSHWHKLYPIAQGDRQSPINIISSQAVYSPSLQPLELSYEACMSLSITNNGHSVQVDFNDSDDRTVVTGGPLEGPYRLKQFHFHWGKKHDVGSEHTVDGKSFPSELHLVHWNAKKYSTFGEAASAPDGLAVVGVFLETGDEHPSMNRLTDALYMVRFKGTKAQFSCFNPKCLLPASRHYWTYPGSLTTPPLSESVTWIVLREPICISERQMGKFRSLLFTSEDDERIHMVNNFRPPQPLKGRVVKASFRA
Description: as §1

[10] = molecular target: hCA I (Homo sapiens, UniProt P00915); assay: Stopped flow CO2 hydrase assay, hCA I
Sequence of hCA I (P00915 whole entry): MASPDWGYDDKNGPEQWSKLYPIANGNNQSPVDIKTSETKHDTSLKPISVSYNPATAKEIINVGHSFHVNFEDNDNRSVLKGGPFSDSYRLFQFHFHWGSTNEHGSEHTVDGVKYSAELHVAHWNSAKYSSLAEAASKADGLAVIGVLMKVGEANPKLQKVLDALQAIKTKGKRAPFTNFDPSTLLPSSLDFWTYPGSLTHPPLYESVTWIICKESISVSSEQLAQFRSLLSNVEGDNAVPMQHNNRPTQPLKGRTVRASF
Description: as §1

[11] = molecular target: hCA XIV (Homo sapiens, UniProt Q9ULX7); assay: Stopped flow CO2 hydrase assay, hCA XIV
Sequence of hCA XIV (Q9ULX7 16-337): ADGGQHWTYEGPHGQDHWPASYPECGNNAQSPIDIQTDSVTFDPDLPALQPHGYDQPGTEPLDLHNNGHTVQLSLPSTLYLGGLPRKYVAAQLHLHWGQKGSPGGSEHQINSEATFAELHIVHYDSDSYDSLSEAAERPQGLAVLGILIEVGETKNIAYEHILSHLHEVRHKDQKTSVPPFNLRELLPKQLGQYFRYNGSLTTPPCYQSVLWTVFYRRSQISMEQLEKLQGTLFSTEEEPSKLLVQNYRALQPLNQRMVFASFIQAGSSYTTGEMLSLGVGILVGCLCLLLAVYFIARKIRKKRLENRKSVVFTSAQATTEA
Description: as §1

[12] = molecular target: hCA XII (Homo sapiens, UniProt O43570); assay: Stopped flow CO2 hydrase assay, hCA XII
Sequence of hCA XII (O43570 25-354): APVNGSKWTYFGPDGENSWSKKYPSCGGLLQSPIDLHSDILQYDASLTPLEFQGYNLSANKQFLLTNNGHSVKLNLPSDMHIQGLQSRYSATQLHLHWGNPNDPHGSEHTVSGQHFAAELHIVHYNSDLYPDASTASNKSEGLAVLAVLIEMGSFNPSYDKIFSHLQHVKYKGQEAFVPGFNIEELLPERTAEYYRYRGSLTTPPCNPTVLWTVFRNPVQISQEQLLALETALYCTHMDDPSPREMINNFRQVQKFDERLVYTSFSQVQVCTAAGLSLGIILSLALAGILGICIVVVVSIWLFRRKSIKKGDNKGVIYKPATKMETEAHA
Description: as §1

[13] = molecular target: hCA II (Homo sapiens, UniProt P00918); assay: Stopped flow CO2 hydrase assay, hCA II
Description: as §1

[14] = system: HIV; conditions: compared to efavirenz, cited from earlier work

Sequence of hCA III (P07451 whole entry): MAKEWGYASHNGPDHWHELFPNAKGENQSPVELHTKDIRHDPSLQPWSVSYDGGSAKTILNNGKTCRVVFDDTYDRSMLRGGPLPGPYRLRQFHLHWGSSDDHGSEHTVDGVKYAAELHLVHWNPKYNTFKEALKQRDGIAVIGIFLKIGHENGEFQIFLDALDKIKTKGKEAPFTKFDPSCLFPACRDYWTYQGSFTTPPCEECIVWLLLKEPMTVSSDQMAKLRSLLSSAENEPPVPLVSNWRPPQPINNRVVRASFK
Sequence of hCA VA (P35218 39-305): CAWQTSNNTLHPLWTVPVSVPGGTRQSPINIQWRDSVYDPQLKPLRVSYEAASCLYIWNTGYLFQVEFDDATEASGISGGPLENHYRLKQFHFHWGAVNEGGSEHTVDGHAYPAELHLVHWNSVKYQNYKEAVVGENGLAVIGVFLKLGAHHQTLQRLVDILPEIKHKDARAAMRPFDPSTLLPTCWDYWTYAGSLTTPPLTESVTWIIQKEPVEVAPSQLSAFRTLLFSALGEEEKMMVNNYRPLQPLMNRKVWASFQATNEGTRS

| selectivity towards hCA VII over the majority of other hCA isoforms ([9]; from Ki values) | Ki [12] | SMILES | t1/2 of elimination ([1]; elimination of active form) | Ki [2] | Ki [3] | Ki [4] | Ki [5] | Ki [6] | Ki [7] | Ki [8] | Ki [9] | Ki [10] | Ki [11] | Ki [13] | t1/2 of conversion to VM1500A ([1]; conversion of prodrug to active form) | inhibition of hCA III (in words) ([4]; stopped flow CO2 hydrase assay) | inhibition of hCA IV (in words) ([5]; stopped flow CO2 hydrase assay) | tolerability and side effects ([14]; patients) | virologic response (viral load and HIV RNA reduction) ([14]; treatment-naive patients) |
| --- | --- | --- | --- | --- | --- | --- | --- | --- | --- | --- | --- | --- | --- | --- | --- | --- | --- | --- | --- |
| 1–2 orders of magnitude | 62.3 nM | N#Cc1cc(Cl)cc(Oc2c(Br)ccc(CC(=O)Nc3ccc(S(N)(=O)=O)cc3Cl)c2F)c1 [VM1500A] | > 120 h | 537 nM | 72.1 nM | > 100000 nM | 158 nM | 52.2 nM | 221 nM | 125 nM | 9.7 nM | 514 nM | 15.4 nM | 35.5 nM |  |  |  |  |  |
|  |  | CCC(=O)NS(=O)(=O)c1ccc(NC(=O)Cc2ccc(Br)c(Oc3cc(Cl)cc(C#N)c3)c2F)c(Cl)c1 [elsulfavirine] |  | 4290 nM | 6650 nM | > 100000 nM | > 100000 nM | 4820 nM | 14200 nM | 5670 nM | 2390 nM | 52400 nM | 1960 nM | 12500 nM | ~2 h | virtually no inhibition | virtually no inhibition | superior tolerability and fewer side effects | comparable to that of the patients treated with efavirenz |
